Measurements reported in the supplement of paper PMC10307832.

Experiments:
Test in all cases: relative viability (nuclei count vs DMSO), 5 days (fraction); higher = more cells survive
[1] = compound: C[C@]1(c2nc3c(C(N)=O)cccc3[nH]2)CCCN1 [Veliparib] + C[C@@H](Oc1cc(-c2cnn(C3CCNCC3)c2)cnc1N)c1c(Cl)ccc(F)c1Cl [Crizotinib] (partner 1 µM)
Method in brief: (§1)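 One day after seeding in 1536-well plates, lung cancer cell lines were dosed by pin tool. Dosing was either single-drug or a fixed anchor-drug dose plus five library-drug doses (not always all listed) in √10 steps. After 5 days, nuclei were stained in one fix-and-stain step and counted on 4× images, and relative viability is the nuclei count of treated wells over that of vehicle wells, given as the median of duplicate plates.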

[2] = compound: C[C@]1(c2nc3c(C(N)=O)cccc3[nH]2)CCCN1 [Veliparib] + O=C(c1cc(Cc2n[nH]c(=O)c3ccccc23)ccc1F)N1CCN(C(=O)C2CC2)CC1 [Olaparib] (partner 8 µM)
Method in brief: as §1

[3] = compound: C[C@]1(c2nc3c(C(N)=O)cccc3[nH]2)CCCN1 [Veliparib] + Nc1nc2[nH]cc(CCc3ccc(C(=O)N[C@@H](CCC(=O)O)C(=O)O)cc3)c2c(=O)[nH]1 [Pemetrexed] (partner 0.2 µM)
Method in brief: as §1

[4] = compound: COC1=CC=C(C=C1)CN2C=CC3=C2C=C(C=C3)C(=O)NO + C[C@]1(O)C[C@@H](c2nc(-c3ccc4ccc(-c5ccccc5)nc4c3)c3c(N)nccn32)C1 [Linsitinib] (partner 1 µM)
Method in brief: as §1

Row | Cell Line | relative viability ([1]; first compound 0.02 µM) | relative viability ([1]; first compound 0.06325 µM) | relative viability ([1]; first compound 0.2 µM) | relative viability ([1]; first compound 0.6325 µM) | relative viability ([1]; first compound 2 µM) | relative viability ([2]; first compound 0.02 µM) | relative viability ([2]; first compound 0.06325 µM) | relative viability ([2]; first compound 0.2 µM) | relative viability ([2]; first compound 0.6325 µM) | relative viability ([2]; first compound 2 µM) | relative viability ([3]; first compound 0.02 µM) | relative viability ([3]; first compound 0.06325 µM) | relative viability ([3]; first compound 0.2 µM) | relative viability ([3]; first compound 0.6325 µM) | relative viability ([3]; first compound 2 µM) | relative viability ([4]; first compound 0.08 µM) | relative viability ([4]; first compound 0.253 µM) | relative viability ([4]; first compound 0.8 µM) | relative viability ([4]; first compound 2.53 µM) | relative viability ([4]; first compound 8 µM)
1 | HCC-15 | 0.803 | 0.86 | 0.847 | 0.752 | 0.825 | 0.756 | 0.649 | 0.726 | 0.686 | 0.706 | 0.219 | 0.214 | 0.228 | 0.2 | 0.239 | 0.802 | 0.877 | 0.887 | 0.968 | 0.915
2 | NCI-H2405 | 0.845 | 0.788 | 0.802 | 0.815 | 0.909 | 0.927 | – | 0.888 | 0.872 | 0.939 | 1.08 | – | 1.11 | 0.978 | 1.04 | 0.66 | 0.932 | 0.915 | 0.915 | 0.794
3 | NCI-H2126 | 0.966 | 1.02 | 0.988 | 0.988 | 0.933 | 0.905 | 0.925 | 0.913 | 0.927 | 0.865 | 0.716 | 0.732 | 0.71 | 0.647 | 0.675 | 0.735 | 0.754 | 0.686 | 0.737 | 0.727
4 | NCI-H838 | 0.859 | 0.9 | 0.851 | 0.83 | 0.895 | 0.852 | 0.729 | 0.802 | 0.702 | 0.764 | 0.262 | 0.255 | 0.244 | 0.269 | 0.269 | – | 1.13 | 1.13 | 1.08 | 0.961
5 | EPLC-272H | – | 0.798 | 0.855 | 0.941 | 0.904 | – | 0.764 | 1.05 | 0.733 | 0.715 | – | 0.273 | 0.359 | 0.283 | 0.418 | 0.987 | 1.18 | 1.14 | 1.14 | 1.05
6 | NCI-H1975 | 0.964 | 1.12 | 0.977 | 0.93 | 0.89 | 0.77 | 0.745 | 0.788 | 0.748 | 0.776 | 0.292 | 0.332 | 0.295 | 0.292 | 0.311 | 0.929 | 1.07 | 0.956 | 0.931 | 0.863
7 | NCI-H3122 | 0.247 | 0.297 | 0.26 | 0.268 | 0.304 | 0.628 | 0.571 | 0.549 | 0.619 | 0.623 | 0.194 | 0.203 | 0.19 | 0.211 | 0.2 | 0.975 | 1.04 | 1.03 | 1 | 0.997
8 | PC-14 | 0.896 | 0.898 | 0.781 | 0.766 | 0.766 | 0.342 | 0.326 | 0.368 | 0.38 | 0.204 | – | 0.13 | 0.168 | 0.143 | 0.134 | 0.894 | 0.959 | 0.936 | 1.04 | 0.944
9 | COR-L 105 | 0.881 | 0.583 | 0.921 | 0.786 | 0.696 | 0.689 | 0.519 | 0.732 | 0.608 | 0.731 | 1.27 | 1.09 | 1.27 | 1.19 | 1.01 | – | 0.945 | 0.763 | 0.983 | 0.765
